Measurements as given in patent publication US20230085307A1, “PYRIDAZINONE COMPOUND AND HERBICIDE” (NISSAN CHEMICAL CORPORATION, priority 2019, published 2023).

How the values were obtained:
rice flat sedge = assay: Test Example 3: herbicidal effect by foliage application, Wagner pot (Table 18, symbol E); format: in vivo, rice flat sedge (Cyperus iria)
How it was run: (§1)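 Plants were sown in alluvial soil held under 0.1–0.5 cm standing water and grown 14 days in a greenhouse at 25–30 °C. An emulsifiable formulation, water-diluted to the set dose, was then sprayed onto the foliage, and effects were scored three weeks later using previously defined criteria.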

Chinese sprangletop = assay: Test Example 3: herbicidal effect by foliage application, Wagner pot (Table 18, symbol D); format: in vivo, chinese sprangletop (Leptochloa chinensis)
How it was run: as §1

barnyard grass [1] = assay: Test Example 3: herbicidal effect by foliage application, Wagner pot (Table 18, symbol H); format: in vivo, barnyard grass (Echinochloa crus-galli)
How it was run: as §1

Japanese bulrush = assay: Test Example 1: herbicidal activity, application before weed generation under submerged conditions (Table 16, symbol B); format: in vivo, Japanese bulrush (Schoenoplectus juncoides)
How it was run: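 Emulsion formulation, water-diluted to set dose, was put onto the flooded surface (4 cm depth, alluvial soil) the same day weeds were sown and 2.5-leaf rice transplanted. After 3 weeks at 25-30 °C under glass, each species was rated 0 (≤5% kill) to 5 (≥90% kill).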

oval-leafed pondweed = assay: Test Example 1: herbicidal activity, application before weed generation under submerged conditions (Table 16, symbol C); format: in vivo, oval-leafed pondweed (Monochoria vaginalis)
Text: (§2) [Test Example 1] Herbicidal Activity Test by Application before Weed Generation under Submerged Conditions After alluvial soil was placed into 1/10000 are of Wagner pot, water was poured and mixed to form a submerged condition having a water depth of 4 cm. Seeds of late watergrass, Japanese bulrush, and oval-leafed pondweed were sowed in a mixed manner in the aforementioned pot, and then 2.5 leaf stage rice plant seedlings were transplanted thereto. On the day of sowing seeds, the emulsion agent of the compound of the present invention prepared according to Formulation Example 2 was diluted with water so as to achieve a predetermined herbicide amount, and the diluted emulsion agent was applied to the surface of the water. The pot was placed in a greenhouse at 25° C. to 30° C. for growth of the plants. Three weeks after the herbicide application, the effect of the herbicide on each plant was evaluated according to the following criteria. Evaluation Criteria 5: Herbicidal rate of 90% or more (almost completely withered) 4: Herbicidal rate of 70% or more and less than 90% 3: Herbicidal rate of 40% or more and less than 70% 2: Herbicidal rate of 20% or more and less than 40% 1: Herbicidal rate of 5% or more and less than 20% 0: Herbicidal rate of 5% or less (almost no effect)

late watergrass = assay: Test Example 1: herbicidal activity, application before weed generation under submerged conditions (Table 16, symbol A); format: in vivo, late watergrass (Echinochloa oryzicola)
Text: as §2

green foxtail [2] = assay: Test Example 5: herbicidal effect by foliage application, plastic box (Table 20, symbol G); format: in vivo, green foxtail (Setaria viridis); details: foliage application, 320 g/ha, three weeks after application
How it was run: (§3)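 Sow seeds spot-wise in sterilized diluvial soil; cover with ~1.5 cm soil. Grow 14 days in greenhouse, 25° C. to 30° C. Spray foliage with emulsion diluted to predetermined amount. Rate effect after 3 weeks.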

velvetleaf [3] = assay: Test Example 5: herbicidal effect by foliage application, plastic box (Table 20, symbol M); format: in vivo, velvetleaf (Abutilon theophrasti); details: foliage application, 320 g/ha, three weeks after application
How it was run: as §3

barnyard grass [4] = assay: Test Example 4: herbicidal effect by soil treatment (Table 19, symbol H); format: in vivo, barnyard grass (Echinochloa crus-galli); details: amount of applied herbicide 320 g/ha
How it was run: (§4)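 Applied as a water-diluted emulsion, the compound was sprayed onto soil covering newly sown seeds. Evaluation came three weeks after application, in a greenhouse held at 25° C. to 30° C.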

southern crabgrass [5] = assay: Test Example 5: herbicidal effect by foliage application, plastic box (Table 20, symbol F); format: in vivo, southern crabgrass (Digitaria ciliaris); details: foliage application, 320 g/ha, three weeks after application
How it was run: as §3

velvetleaf [6] = assay: Test Example 4: herbicidal effect by soil treatment (Table 19, symbol M); format: in vivo, velvetleaf (Abutilon theophrasti); details: amount of applied herbicide 320 g/ha
How it was run: as §4

lambsquarters [7] = assay: Test Example 4: herbicidal effect by soil treatment (Table 19, symbol O); format: in vivo, lambsquarters (Chenopodium album); details: amount of applied herbicide 320 g/ha
How it was run: as §4

southern crabgrass [8] = assay: Test Example 4: herbicidal effect by soil treatment (Table 19, symbol F); format: in vivo, southern crabgrass (Digitaria ciliaris); details: amount of applied herbicide 320 g/ha
How it was run: as §4

lambsquarters [9] = assay: Test Example 5: herbicidal effect by foliage application, plastic box (Table 20, symbol O); format: in vivo, lambsquarters (Chenopodium album); details: foliage application, 320 g/ha, three weeks after application
How it was run: as §3

barnyard grass [10] = assay: Test Example 5: herbicidal effect by foliage application, plastic box (Table 20, symbol H); format: in vivo, barnyard grass (Echinochloa crus-galli); details: foliage application, 320 g/ha, three weeks after application
How it was run: as §3

green foxtail [11] = assay: Test Example 4: herbicidal effect by soil treatment (Table 19, symbol G); format: in vivo, green foxtail (Setaria viridis); details: amount of applied herbicide 320 g/ha
How it was run: as §4

redroot pigweed = assay: Test Example 4: herbicidal effect by soil treatment (Table 19, symbol N); format: in vivo, redroot pigweed (Amaranthus retroflexus); details: amount of applied herbicide 320 g/ha
How it was run: as §4

[12] = amount of applied herbicide 246 g/ha
[13] = amount of applied herbicide 370 g/ha
[14] = amount of applied herbicide 320 g/ha

## COc1cc(F)ccc1-c1sc2ccc(SC)cc2c1-c1c(O)c(C)nn(C)c1=O [2-376]
Rice flat sedge; [12]
  herbicidal effect on E: rice flat sedge: 3 (Herbicidal rate of 40% or more and less than 70%)
Chinese sprangletop; [12]
  herbicidal effect on D: Chinese sprangletop: 3 (Herbicidal rate of 40% or more and less than 70%)
Barnyard grass [1]; [12]
  herbicidal effect on H: barnyard grass: 5 (Herbicidal rate of 90% or more (almost completely withered))
Japanese bulrush; 246 g/ha applied herbicide
  Herbicidal effect on B: Japanese bulrush (grade 0-5): 0 (Herbicidal rate of 5% or less (almost no effect))
oval-leafed pondweed; 246 g/ha applied herbicide
  Herbicidal effect on C: oval-leafed pondweed (grade 0-5): 0 (Herbicidal rate of 5% or less (almost no effect))
Late watergrass; 246 g/ha applied herbicide
  Herbicidal effect on A: late watergrass (grade 0-5): 3 (Herbicidal rate of 40% or more and less than 70%)

## CCCC(=O)Oc1c(C)nn(C)c(=O)c1-c1c(-c2ccccc2OCC)sc2cc(OC)c(-c3ccccc3OCC)cc12 [5-080]
Rice flat sedge; 370 g/ha
  herbicidal effect on rice flat sedge (E): 2 (Herbicidal rate of 20% or more and less than 40%)
Chinese sprangletop; 370 g/ha
  herbicidal effect on Chinese sprangletop (D): 3 (Herbicidal rate of 40% or more and less than 70%)
Barnyard grass [1]; 370 g/ha
  herbicidal effect on barnyard grass (H): 3 (Herbicidal rate of 40% or more and less than 70%)
Japanese bulrush; [13]
  Herbicidal effect, B: Japanese bulrush: 3 (Herbicidal rate of 40% or more and less than 70%)
oval-leafed pondweed; [13]
  Herbicidal effect, C: oval-leafed pondweed: 0 (Herbicidal rate of 5% or less (almost no effect))
Late watergrass; [13]
  Herbicidal effect, A: late watergrass: 0 (Herbicidal rate of 5% or less (almost no effect))

## Cc1nn(C)c(=O)c(-c2c(-c3ccc(Cl)cc3)sc3cc(F)c(F)cc23)c1OCc1ccccc1 [5-083]
Rice flat sedge; 320 g/ha
  herbicidal effect on rice flat sedge (E): 2 (Herbicidal rate of 20% or more and less than 40%)
Chinese sprangletop; 320 g/ha
  herbicidal effect on Chinese sprangletop (D): 0 (Herbicidal rate of 5% or less (almost no effect))
Barnyard grass [1]; 320 g/ha
  herbicidal effect on barnyard grass (H): 1 (Herbicidal rate of 5% or more and less than 20%)
Japanese bulrush; [14]
  Herbicidal effect, B: Japanese bulrush: 3 (Herbicidal rate of 40% or more and less than 70%)
oval-leafed pondweed; [14]
  Herbicidal effect, C: oval-leafed pondweed: 0 (Herbicidal rate of 5% or less (almost no effect))
Late watergrass; [14]
  Herbicidal effect, A: late watergrass: 0 (Herbicidal rate of 5% or less (almost no effect))

## Cc1nn(C)c(=O)c(-c2c(-c3ccc(OC(F)(F)F)cc3)sc3cc(F)c(F)cc23)c1O [5-105]
Green foxtail [2]
  herbicidal effect on green foxtail (G): 5 (Herbicidal rate of 90% or more (almost completely withered))
Rice flat sedge; 320 g/ha
  herbicidal effect on rice flat sedge (E): 0 (Herbicidal rate of 5% or less (almost no effect))
Velvetleaf [3]
  herbicidal effect on velvetleaf (M): 4 (Herbicidal rate of 70% or more and less than 90%)
Chinese sprangletop; 320 g/ha
  herbicidal effect on Chinese sprangletop (D): 0 (Herbicidal rate of 5% or less (almost no effect))
Barnyard grass [1]; 320 g/ha
  herbicidal effect on barnyard grass (H): 5 (Herbicidal rate of 90% or more (almost completely withered))
Japanese bulrush; [14]
  Herbicidal effect, B: Japanese bulrush: 0 (Herbicidal rate of 5% or less (almost no effect))
Barnyard grass [4]
  H: barnyard grass, herbicidal effect grade: 0 (Herbicidal rate of 5% or less (almost no effect))
Southern crabgrass [5]
  herbicidal effect on southern crabgrass (F): 4 (Herbicidal rate of 70% or more and less than 90%)
Velvetleaf [6]
  M: velvetleaf, herbicidal effect grade: 2 (Herbicidal rate of 20% or more and less than 40%)
Lambsquarters [7]
  O: lambsquarters, herbicidal effect grade: 4 (Herbicidal rate of 70% or more and less than 90%)
Southern crabgrass [8]
  F: southern crabgrass, herbicidal effect grade: 0 (Herbicidal rate of 5% or less (almost no effect))
Lambsquarters [9]
  herbicidal effect on lambsquarters (O): 5 (Herbicidal rate of 90% or more (almost completely withered))
oval-leafed pondweed; [14]
  Herbicidal effect, C: oval-leafed pondweed: 0 (Herbicidal rate of 5% or less (almost no effect))
Barnyard grass [10]
  herbicidal effect on barnyard grass (H): 5 (Herbicidal rate of 90% or more (almost completely withered))
Green foxtail [11]
  G: green foxtail, herbicidal effect grade: 0 (Herbicidal rate of 5% or less (almost no effect))
Redroot pigweed
  N: redroot pigweed, herbicidal effect grade: 3 (Herbicidal rate of 40% or more and less than 70%)
Late watergrass; [14]
  Herbicidal effect, A: late watergrass: 2 (Herbicidal rate of 20% or more and less than 40%)
